Data: DBAASP
Converted amounts (≈) assume the structure as drawn. Values belong to the molecule of their own block, whether it stands above or below them.

Columns and labels:
Assay in all cases: ≥ marks a high value that may be exact or a test limit, other limits are often not marked, values filed in µg/mL are converted to µM
[1] = system: Pseudomonas aeruginosa Ps4
Staphylococcus aureus = system: Staphylococcus aureus
[2] = system: Candida albicans F7-39/IDE99
Pseudomonas aeruginosa = system: Pseudomonas aeruginosa
Escherichia coli B = system: Escherichia coli B
Bacillus subtilis = system: Bacillus subtilis
Escherichia coli K99 = system: Escherichia coli K99
[3] = system: Salmonella enterica subsp. enterica serovar Typhimurium C77-31
[4] = system: Salmonella enterica subsp. enterica serovar Pullorum C79-13
Escherichia coli UB1005 = system: Escherichia coli UB1005
Escherichia coli K88 = system: Escherichia coli K88
Escherichia coli = system: Escherichia coli
Acinetobacter baumannii = system: Acinetobacter baumannii
[5] = system: Pseudomonas aeruginosa PAO1
Klebsiella pneumoniae = system: Klebsiella pneumoniae
[6] = system: Escherichia coli ATCC 25922
[7] = system: Pseudomonas aeruginosa CICC 21630
[8] = system: Salmonella enterica subsp. enterica serovar Typhimurium ATCC 14028
[9] = system: Pseudomonas aeruginosa ATCC 27853
[10] = system: Pseudomonas aeruginosa CICC 21625
[11] = system: Enterococcus faecalis ATCC 29212
[12] = system: Pseudomonas aeruginosa H103
[13] = system: Staphylococcus epidermidis
[14] = system: Salmonella enterica serovar Typhimurium
Candida albicans = system: Candida albicans
[15] = system: Staphylococcus aureus ATCC 25923

SMILES: CC[C@H](C)[C@H](NC(=O)[C@H](CC(N)=O)NC(=O)[C@H](CCCN=C(N)N)NC(=O)[C@H](CCC(N)=O)NC(=O)[C@H](Cc1c[nH]c2ccccc12)NC(=O)[C@@H](NC(=O)[C@@H](N)Cc1ccccc1)[C@@H](C)CC)C(=O)N[C@@H](CCCN=C(N)N)C(=O)N[C@@H](CCCCN)C(=O)N[C@H](C(=O)N[C@@H](CCCN=C(N)N)C(N)=O)C(C)C [FIWQRNIRKVR]
MIC [1]: ≥ 165 µM

SMILES: CC[C@H](C)[C@H](NC(=O)[C@H](CCCN=C(N)N)NC(=O)[C@H](Cc1c[nH]c2ccccc12)NC(=O)CNC(=O)[C@H](CCCN=C(N)N)NC(=O)[C@H](Cc1c[nH]c2ccccc12)NC(=O)[C@@H](N)Cc1ccccc1)C(=O)N[C@@H](CCCN=C(N)N)C(=O)N[C@@H](CCCN=C(N)N)C(N)=O [FWRGWRIRR]
MIC [1]: ≥ 93.8 µM

SMILES: CC[C@H](C)[C@H](NC(=O)[C@H](C)NC(=O)[C@H](C)NC(=O)[C@H](CC(C)C)NC(=O)[C@@H](NC(=O)[C@H](CCCCN)NC(=O)[C@H](CCCN=C(N)N)NC(=O)[C@@H]1CCCN1C(=O)[C@H](CC(C)C)NC(=O)CN)[C@@H](C)CC)C(=O)N[C@@H](C)C(=O)N[C@@H](CCCCN)C(=O)N[C@@H](CCCCN)C(=O)N[C@@H](CCCCN)C(N)=O [GLPRKILAAIAKKK]
MIC (Staphylococcus aureus): > 100 µM
MIC [2]: ≥ 100 µM
MIC (Pseudomonas aeruginosa): > 100 µM
MIC (Escherichia coli B): ≥ 100 µM
MIC (Bacillus subtilis): ≥ 35 µM

SMILES: CC[C@H](C)[C@H](N)C(=O)N[C@@H](CCCCN)C(=O)N1CCC[C@H]1C(=O)N[C@H](C(=O)N[C@H](C(=O)N[C@@H](CCCCN)C(=O)N1CCC[C@H]1C(=O)N[C@H](C(=O)N[C@H](C(=O)N[C@@H](CCCCN)C(=O)N1CCC[C@H]1C(=O)N[C@H](C(=O)N[C@H](C(=O)N[C@@H](CCCCN)C(=O)N1CCC[C@H]1C(=O)N[C@H](C(=O)N[C@H](C(=O)N[C@@H](CCCCN)C(=O)N1CCC[C@H]1C(=O)N[C@H](C(=O)N[C@H](C(=O)N[C@@H](CCCCN)C(=O)N1CCC[C@H]1C(=O)N[C@H](C(=O)N[C@H](C(=O)N[C@@H](CCCCN)C(=O)N1CCC[C@H]1C(=O)N[C@H](C(N)=O)[C@@H](C)CC)[C@@H](C)CC)[C@@H](C)CC)[C@@H](C)CC)[C@@H](C)CC)[C@@H](C)CC)[C@@H](C)CC)[C@@H](C)CC)[C@@H](C)CC)[C@@H](C)CC)[C@@H](C)CC)[C@@H](C)CC)[C@@H](C)CC [IKPIIKPIIKPIIKPIIKPIIKPIIKPI]
MIC (Escherichia coli K99): 2 µM (≈ 6.36 µg/mL)
MIC [3]: ≥ 64 µM
MIC [4]: ≥ 64 µM
MIC (Escherichia coli UB1005): 16 µM (≈ 50.9 µg/mL)
MIC (Escherichia coli K88): 2 µM (≈ 6.36 µg/mL)
MIC (Escherichia coli): 16 µM (≈ 50.9 µg/mL)
MIC (Acinetobacter baumannii): 2 µM (≈ 6.36 µg/mL)
MIC [5]: > 64 µM
MIC (Klebsiella pneumoniae): 16 µM (≈ 50.9 µg/mL)
MIC (Pseudomonas aeruginosa): > 64 µM
MIC [6]: 8 µM (≈ 25.4 µg/mL)
MIC [7]: ≥ 64 µM
MIC [8]: 64 µM (≈ 203 µg/mL)
MIC [9]: > 64 µM
MIC [10]: ≥ 64 µM

SMILES: CC[C@H](C)[C@H](N)C(=O)N[C@@H](Cc1c[nH]c2ccccc12)C(=O)N[C@@H](CCC(N)=O)C(=O)N[C@@H](CCCN=C(N)N)C(=O)N[C@@H](CC(N)=O)C(=O)N[C@H](C(=O)N[C@@H](CCCN=C(N)N)C(=O)N[C@H](C(=O)N[C@@H](CCCN=C(N)N)C(=O)N[C@@H](CCCN=C(N)N)C(N)=O)[C@@H](C)CC)[C@@H](C)CC [IWQRNIRIRR]
MIC [1]: ≥ 177 µM

SMILES: NCCCC[C@H](NC(=O)[C@H](CCCN=C(N)N)NC(=O)[C@H](Cc1c[nH]c2ccccc12)NC(=O)[C@H](Cc1c[nH]c2ccccc12)NC(=O)[C@H](CCCN=C(N)N)NC(=O)[C@@H](N)CCCCN)C(=O)N[C@@H](Cc1c[nH]c2ccccc12)C(=O)N[C@@H](Cc1c[nH]c2ccccc12)C(=O)N[C@@H](CCCN=C(N)N)C(=O)O [KRWWRKWWR]
MIC [11]: 10.8 µM (≈ 16.1 µg/mL)
MIC (Escherichia coli UB1005): 2.7 µM (≈ 4.02 µg/mL)
MIC [12]: ≥ 43.2 µM
MIC [13]: 0.7 µM (≈ 1.04 µg/mL)
MIC [14]: 5.4 µM (≈ 8.03 µg/mL)
MIC (Candida albicans): 5.4 µM (≈ 8.03 µg/mL)
MIC [15]: 0.7 µM (≈ 1.04 µg/mL)

Other lines, results leading:

MIC [11]: 4.6 µM (≈ 6.52 µg/mL)
MIC (Escherichia coli UB1005): 4.6 µM (≈ 6.52 µg/mL)
MIC [12]: 4.6 µM (≈ 6.52 µg/mL)
MIC [13]: 1.2 µM (≈ 1.7 µg/mL)
MIC [14]: 4.6 µM (≈ 6.52 µg/mL)
MIC (Candida albicans): 4.6 µM (≈ 6.52 µg/mL)
MIC [15]: 1.2 µM (≈ 1.7 µg/mL)
SMILES: CC[C@H](C)[C@H](NC(=O)[C@H](CCCCN)NC(=O)[C@H](CCCN=C(N)N)NC(=O)[C@H](Cc1c[nH]c2ccccc12)NC(=O)[C@H](Cc1c[nH]c2ccccc12)NC(=O)[C@H](Cc1c[nH]c2ccccc12)NC(=O)[C@H](CCCCN)NC(=O)[C@H](Cc1c[nH]c2ccccc12)NC(=O)[C@@H](N)CCCCN)C(=O)O [KWKWWWRKI]

MIC (Escherichia coli K99): 16 µM (≈ 29.2 µg/mL)
MIC [3]: ≥ 64 µM
MIC [4]: ≥ 32 µM
MIC (Escherichia coli UB1005): 16 µM (≈ 29.2 µg/mL)
MIC (Escherichia coli K88): 16 µM (≈ 29.2 µg/mL)
MIC (Escherichia coli): 32 µM (≈ 58.4 µg/mL)
MIC (Acinetobacter baumannii): 4 µM (≈ 7.29 µg/mL)
MIC [5]: > 64 µM
MIC (Klebsiella pneumoniae): > 64 µM
MIC (Pseudomonas aeruginosa): > 64 µM
MIC [6]: 16 µM (≈ 29.2 µg/mL)
MIC [7]: ≥ 64 µM
MIC [8]: > 64 µM
MIC [9]: > 64 µM
MIC [10]: ≥ 64 µM
SMILES: CC(C)C[C@H](NC(=O)[C@@H]1CCCN1C(=O)[C@H](CCCCN)NC(=O)[C@H](CC(C)C)NC(=O)[C@H](CC(C)C)NC(=O)[C@@H]1CCCN1C(=O)[C@H](CCCCN)NC(=O)[C@H](CC(C)C)NC(=O)[C@H](CC(C)C)NC(=O)[C@@H]1CCCN1C(=O)[C@H](CCCCN)NC(=O)[C@H](CC(C)C)NC(=O)[C@H](CC(C)C)NC(=O)[C@@H]1CCCN1C(=O)[C@H](CCCCN)NC(=O)[C@@H](N)CC(C)C)C(N)=O [LKPLLKPLLKPLLKPL]

MIC (Escherichia coli K99): ≥ 32 µM
MIC [3]: ≥ 64 µM
MIC [4]: 8 µM (≈ 15.5 µg/mL)
MIC (Escherichia coli UB1005): ≥ 32 µM
MIC (Escherichia coli K88): 8 µM (≈ 15.5 µg/mL)
MIC (Escherichia coli): 16 µM (≈ 31 µg/mL)
MIC (Acinetobacter baumannii): 2 µM (≈ 3.87 µg/mL)
MIC [5]: > 64 µM
MIC (Klebsiella pneumoniae): > 64 µM
MIC (Pseudomonas aeruginosa): > 64 µM
MIC [6]: 8 µM (≈ 15.5 µg/mL)
MIC [7]: ≥ 64 µM
MIC [8]: 32 µM (≈ 61.9 µg/mL)
MIC [9]: > 64 µM
MIC [10]: ≥ 64 µM
SMILES: CC(C)C[C@H](NC(=O)[C@@H]1CCCN1C(=O)[C@H](CCCN=C(N)N)NC(=O)[C@H](CC(C)C)NC(=O)[C@H](CC(C)C)NC(=O)[C@@H]1CCCN1C(=O)[C@H](CCCN=C(N)N)NC(=O)[C@H](CC(C)C)NC(=O)[C@H](CC(C)C)NC(=O)[C@@H]1CCCN1C(=O)[C@H](CCCN=C(N)N)NC(=O)[C@H](CC(C)C)NC(=O)[C@H](CC(C)C)NC(=O)[C@@H]1CCCN1C(=O)[C@H](CCCN=C(N)N)NC(=O)[C@@H](N)CC(C)C)C(N)=O [LRPLLRPLLRPLLRPL]

MIC [11]: 5.4 µM (≈ 7.32 µg/mL)
MIC (Escherichia coli UB1005): 0.7 µM (≈ 0.948 µg/mL)
MIC [12]: 21.4 µM (≈ 29 µg/mL)
MIC [13]: 0.883 µM (≈ 1.2 µg/mL)
MIC [14]: 5.4 µM (≈ 7.32 µg/mL)
MIC (Candida albicans): 10.7 µM (≈ 14.5 µg/mL)
MIC [15]: 1.3 µM (≈ 1.76 µg/mL)
SMILES: CC[C@H](C)[C@H](NC(=O)[C@H](CCCN=C(N)N)NC(=O)[C@@H](NC(=O)[C@H](Cc1c[nH]c2ccccc12)NC(=O)[C@H](CCCN=C(N)N)NC(=O)[C@H](CCCN=C(N)N)NC(=O)[C@@H](N)CC(C)C)[C@@H](C)CC)C(=O)N[C@@H](CCCN=C(N)N)C(=O)N[C@@H](Cc1c[nH]c2ccccc12)C(=O)O [LRRWIRIRW]

MIC [1]: ≥ 153 µM
SMILES: CC[C@H](C)[C@H](NC(=O)[C@H](CC(N)=O)NC(=O)[C@H](CCCN=C(N)N)NC(=O)[C@H](CCC(N)=O)NC(=O)[C@H](Cc1c[nH]c2ccccc12)NC(=O)[C@@H](N)CCCN=C(N)N)C(=O)N[C@@H](CCCN=C(N)N)C(=O)N[C@@H](CCCCN)C(=O)N[C@@H](Cc1ccc(O)cc1)C(=O)N[C@@H](CCCN=C(N)N)C(=O)N[C@@H](CCCN=C(N)N)C(N)=O [RWQRNIRKYRR]

MIC [11]: 4 µM (≈ 6.26 µg/mL)
MIC (Escherichia coli UB1005): 2 µM (≈ 3.13 µg/mL)
MIC [12]: 2 µM (≈ 3.13 µg/mL)
MIC [13]: 1 µM (≈ 1.56 µg/mL)
MIC [14]: 2 µM (≈ 3.13 µg/mL)
MIC (Candida albicans): 8 µM (≈ 12.5 µg/mL)
MIC [15]: 1 µM (≈ 1.56 µg/mL)
SMILES: CC[C@H](C)[C@H](NC(=O)[C@H](CCCN=C(N)N)NC(=O)[C@H](CC(C)C)NC(=O)[C@H](CCCN=C(N)N)NC(=O)[C@@H](N)C(C)C)C(=O)N[C@@H](CCCN=C(N)N)C(=O)N[C@H](C(=O)N[C@@H](CCCN=C(N)N)C(=O)N[C@H](C(=O)N[C@H](C(=O)N[C@@H](CCCN=C(N)N)C(=O)N[C@@H](CCCCN)C(=O)O)[C@@H](C)CC)C(C)C)C(C)C [VRLRIRVRVIRK]
